Source: ChEMBL document CHEMBL5331056 (Eur J Med Chem, 2022)

Assays:
[1] = Antioxidant activity assessed as DPPH radical scavenging activity measured after 1 hrs; type: functional
[2] = Antioxidant activity assessed as DPPH radical scavenging activity measured after 30 mins; type: functional
MCF7 = experiment: Anticancer activity against human MCF7 cells assessed as cell growth inhibition measured after 72 hrs by MTT assay; type: functional, cell-based; conditions: MCF7, 72 h
PC-3 = experiment: Anticancer activity against human PC-3 cells assessed as cell growth inhibition measured after 72 hrs by MTT assay; type: functional, cell-based; conditions: PC-3, 72 h
Mus musculus [3] = experiment: Antidiabetic activity in STZ-induced Swiss albino mouse assessed as blood glucose level at 5 microM/kg, ip administered twice daily measured after 21 days (reference value: 220 +/- 7.2mg/dl); type: functional; conditions: time 21 day
[4] = Induction of insulin-sensitizing activity in insulin-resistant human HepG2 cells assessed as increase in glucose consumption at 30 ng/ml relative to control; type: functional, insulin-resistant human HepG2 cell
Mus musculus [5] = experiment: Antidiabetic activity in STZ-induced Swiss albino mouse assessed as inhibition of NO level at 5 microM/kg, ip administered twice daily measured after 21 days relative to control; type: functional; set-up: scale not given: the % may be the effect or the level left; conditions: time 21 day, at 5 µmol/kg
Mus musculus [6] = experiment: Antidiabetic activity in STZ-induced C57BL/6J mouse assessed as increase in insulin sensitivity at 30 mg/kg; type: functional
Mus musculus [7] = experiment: Antidiabetic activity in STZ-induced Swiss albino mouse assessed as insulin level at 5 microM/kg, ip administered twice daily measured after 21 days (reference value: 88.7%); type: functional; conditions: time 21 day, at 5 µmol/kg
[8] = Induction of insulin-sensitizing activity in insulin-resistant human HepG2 cells assessed as increase in glucose consumption at 60 ng/ml relative to control; type: functional, insulin-resistant human HepG2 cell
Mus musculus [9] = experiment: Antidiabetic activity in STZ-induced Swiss albino mouse assessed as inhibition of IFN-gamma level at 5 microM/kg, ip administered twice daily measured after 21 days relative to control; type: functional; set-up: scale not given: the % may be the effect or the level left; conditions: time 21 day, at 5 µmol/kg
Mus musculus [10] = experiment: Antiinflammatory activity in STZ-induced C57BL/6J mouse of non insulin dependent diabetes mellitus assessed as PPAR-alpha level at 30 mg/kg; type: functional
Mus musculus [11] = experiment: Antidiabetic activity in STZ-induced Swiss albino mouse assessed as inhibition of IL-1beta level at 5 microM/kg, ip administered twice daily measured after 21 days relative to control; type: functional; set-up: scale not given: the % may be the effect or the level left; conditions: time 21 day, at 5 µmol/kg
[12] = test system: Human immunodeficiency virus; experiment: Antiviral activity against HIV infected in MT4 cells assessed as viral replication; type: functional, organism-based; conditions: Human immunodeficiency virus 1, MT4
Rattus norvegicus = experiment: Antidiabetic activity against overnight fasted STZ-induced Wistar rat of type 1 diabetes assessed as increase in insulin level at 1 mg/kg, po by ELISA (reference value: 7.7 +/- 1.0 microIU/mL); type: functional
[13] = Toxicity in STZ-induced Wistar rat of type 1 diabetes assessed as coronary arterial flow rate at 3 mg/kg, ip administered twice daily measured after 4 weeks (reference value: 12.6 +/- 0.5 mL/min); type: organism-based; conditions: in vivo, 672 h

O=c1c(O)c(-c2ccc(O)c(O)c2)oc2cc(O)cc(O)c12
FRS50 [1]: 13.4 µM

COC(=O)/C=C/c1ccc(O)c(O)c1O
IC50 [2]: 18.6 µM

O=C(/C=C/c1ccc(O)c(O)c1)O[C@@H]1[C@H](O)C[C@@](O)(C(=O)O)C[C@H]1OC(=O)/C=C/c1ccc(O)c(O)c1
FRS50 [1]: 19.8 µM

Oc1ccc(/C=C/COCCc2ccccc2)cc1
IC50 (MCF7): > 10 µM
IC50 (PC-3): > 10 µM

Oc1ccc(/C=C/COCCCCCCc2ccccc2)cc1
IC50 (MCF7): > 10 µM
IC50 (PC-3): > 10 µM

Oc1ccc(/C=C/COCCCCCCc2ccccc2)cc1O
IC50 (MCF7): 2.4 µM
IC50 (PC-3): 1.4 µM

CC(=O)/C=C/c1ccc(O)c(O)c1O
IC50 [2]: 16.8 µM

O=C(/C=C/c1ccc(O)c(O)c1)OCCc1ccccc1 [CAFFEIC ACID PHENETHYL ESTER]
Activity (Mus musculus [3]): 137 mg/dL
Activity [4]: 17.1%
Activity (Mus musculus [5]): 58.3%
Activity (Mus musculus [6]): 20.8%
Activity (Mus musculus [7]): 93.8%
Activity [8]: 24.3%
Activity (Mus musculus [9]): 26.3%
Activity (Mus musculus [10]): 38.6%
Activity (Mus musculus [11]): 43.2%

O=C(/C=C/c1ccc(O)c(O)c1)O[C@@H]1C[C@](O)(C(=O)O)C[C@@H](OC(=O)/C=C/c2ccc(O)c(O)c2)[C@H]1O
FRS50 [1]: 71.8 µM

CCCCCCCCCCOC/C=C/c1cccc(O)c1
IC50 (MCF7): > 10 µM
IC50 (PC-3): > 10 µM

C[C@@]1(C(=O)O)O[C@H]1COC(=O)/C=C/c1ccc(O)c(O)c1
FRS50 [1]: 43.8 µM

O=C(/C=C/c1ccc(O)c(O)c1)O[C@H]1[C@H](O)C[C@](O)(C(=O)O)C[C@H]1OC(=O)/C=C/c1ccc(O)c(O)c1
FRS50 [1]: 23.8 µM

Oc1ccc(/C=C/COCCc2ccccc2)cc1O
IC50 (MCF7): 8 µM
IC50 (PC-3): 1.2 µM

O=C(O)/C=C/c1ccc(O)c(O)c1 [CAFFEIC ACID]
IC50 [2]: 32.2 µM

COC(=O)/C=C/c1cc(O)c(O)cc1O
IC50 [2]: 53.3 µM

CCCCCCCCCCOC/C=C/c1ccc(O)c(O)c1
IC50 (MCF7): 1.7 µM
IC50 (PC-3): 0.6 µM

CCCCCCCCCCOC/C=C/c1cc(O)c(O)c(O)c1
IC50 (MCF7): 0.8 µM
IC50 (PC-3): 0.6 µM

O=C1C=C(Cn2cc(COc3ccc(CO)cc3)nn2)C(=O)C=C1O
IC50 [12]: 4.2 µM

O=C(/C=C/c1ccc(O)c(O)c1)NCCc1ccccc1 [CAFFEIC ACID PHENETHYL AMIDE]
Activity (Rattus norvegicus): 14.9 uIU/ml
Activity [13]: 11.2 mL/min

CCCCCCCCCCOC/C=C/c1ccc(O)cc1
IC50 (MCF7): > 10 µM
IC50 (PC-3): > 10 µM
